# Measurements: US9486447B2, “Compositions and methods for controlling neuronal excitation” (The General Hospital Corporation, priority 2011, dated 2016)
# Experiments:
# hTRPA1 = molecular target: T1, hTRPA1 (Homo sapiens, UniProt O75762); assay: Calcium imaging of transfected HEK cells; assay type: cell-based
# T1 construct: expressed in transfected cells; host or cells: HEK293 / HEK293T
# Description: To determine if TRPA1 is sufficient for optovin activity, current density amplitudes were analyzed via whole-cell patch clamping in HEK293T cells transfected with the human TrpA1 (hTrpA1) gene.
# HEK293 cells were plated onto poly-lysine-coated glass bottom culture dishes (MatTek Corp), and grown in Dulbecco's Modified Eagle's Medium (DMEM, Sigma) supplemented with 10% fetal bovine serum and 100 U/mL penicillin and 100 μg/ml streptomycin. After 24 hrs, cells were transfected, according to manufacturer's instructions, in Opti-MEM media, using 4 μl lipofectamine 2000 (Invitrogen), 0.5 ug EGFP in pcDNA, and 0.3 μg TrpA1 DNA per dish. Media was replaced after 2 hours, and cells were cultured for an additional 17 hours. As previously described for neurons, HEK cells were washed with assay buffer (HBSS Gibco 14025, supplemented with 9 mM HEPES, 11 mM D-glucose, 0.1% fatty-acid free BSA, pH 7.3) and incubated for 1 h with 2 μM Fura2-AM (Invitrogen) with 0.2% pluronic (Invitrogen) in assay buffer in the dark at room temperature. The cells were then washed with assay buffer and allowed to equilibrate at room temperature for 30 min prior to imaging. At the start of the imaging session for each dish, cells were replaced with DMSO-assay buffer. After 50 seconds of imaging, assay buffer was aspirated by hand, and replaced with 100 μM optovin dissolved in the DMSO-assay buffer solution. Each dish of HEK cells was imaged for a total of 3 minutes.
# Cells were transfected with the hTRPA1^44, TRPA1 C621S^44, hTRPA1 C633S^45 and hTRPA1 C633S, C856S^45 plasmids as described.
# zebrafish embryos = assay: Zebrafish behavioral assay (light-dependent motor excitation, excitation score); assay type: in vivo
# Description: To identify small molecules for the optical control of endogenous channels, a screen was conducted for compounds that could drive light-dependent motor behaviors in wild-type zebrafish. Zebrafish embryos are particularly well suited for phenotype based chemical screens^28,29. They are blind for the first 3 days of development and other than a one-time motor response to the first light exposure in dark-adapted animals (the photomotor response, PMR), zebrafish embryos are unresponsive to light^31,30 (FIG. 1A). A library of 10,000 structurally diverse synthetic small molecules was screened for compounds that render zebrafish embryos responsive to light. Behavioral responses were measured for each well in comparison to a set of 2,500 DMSO treated controls. This screen identified a single compound, optovin, that increased motor activity greater than 40 standard deviations above the control mean (FIGS. 1A-1C).
# A large number of fertilized eggs (up to 5,000 embryos per day) were collected from group mating of Ekkwill or TuAB zebrafish. Embryos were raised in HEPES (10 mM) buffered E3 media in a dark incubator at 28° C. until […]. Groups of ˜8 embryos (28 hpf) were distributed into the wells of flat bottom black-walled 96 well plates filled with E3 media (360 μl). Embryos were then incubated in a dark incubator 25° C. for chemical treatment and subsequent experiments.
# The Tim Tec ACTIPROBEβ library contains 10,000 compounds dissolved in DMSO at a stock concentration of 1 mg/ml (˜3 mM). The Tim Tec library was screened at a 1:300 dilution in E3 buffer for a final concentration of ˜10 μM. Negative controls were treated with an equal volume of DMSO. Stock solutions were added directly to zebrafish in the wells of a 96 well plate, mixed, and allowed to incubate for 2-10 hours in the dark prior to behavioral evaluation in the PMR assay. The Tim Tec library (10,000 compounds) was purchased from the Tim Tec corporation (Newark, Del.). The Neurotransmitter Library (700 compounds; cat #2810) was purchased from Biomol International. Reordered hit compounds were dissolved in DMSO and added to wells as described above.
# Animals were exposed to a two pulse stimulus train with a 10 s inter-stimulus interval. Exposure to the first pulse was used to trigger the photomotor response, which has a refractory phase of approximately 10 minutes. […] In a typical assay, 1000 frames of digital video were recorded at 33 fps using a Hamamatsu ORCA-ER camera mounted on a Nikon TE200 microscope with a 1× objective. Instrument control and data measurement were performed using custom scripts for Metamorph Software (Molecular Devices). Each video was saved for review. Light stimuli were generated with a 300-watt xenon bulb housed in a Sutter Lambda LS illuminator and delivered to the well 10 s and 20 s after the start of each video. A cold mirror (reflectance between 300 nm and 700 nm) on the Sutter illuminator was used to block wavelengths outside of this range. Light intensity was measured using a PM100D power meter attached to a S120VC photodiode power sensor (Thorlabs). Where indicated, filters were used to restrict the excitation light to the indicated wavelengths.
# To analyze digital video recordings, custom software scripts were used to automatically draw six evenly spaced line segments across each well such that each embryo is likely to be crossed by one of the lines. The software then tracks the average intensity of the pixels for each segment over time. As the embryos move, the light intensity at some of the pixels changes. The motion index was calculated by taking the total absolute difference in pixel intensity between frames. This motion index correlates with the overall amount of motion in the well, both in terms of contraction frequency and number of animals in motion. Behavioral features are quantified by ‘excitation scores’ that are calculated by taking the 75th percentile of the motion index for 3-5 s following the light stimulus. […]
# adult zebrafish = assay: 405 nm laser illumination of adult and spinalized zebrafish; assay type: in vivo
# Description: Optovin's capacity to function in intact adult animals will impact its suitability for future clinical and research applications. Thus, the effects of 405 nm laser illumination on optovin-treated adult zebrafish were analyzed. […] To determine if fin contraction was voluntary or involuntary, the experiment was repeated using spinalized preparations. Optical control of dorsal fin contraction was preserved in spinalized animals treated with optovin (data not shown). Furthermore, carefully controlled laser illumination of specific regions along the body of spinalized zebrafish produced specific dorsal, ventral, and lateral tail movements reminiscent of those used by intact fish during swimming (data not shown). Because zebrafish TRPA1 is primarily expressed in sensory neurons, these contractions and swimming behaviors likely occur via activation of spinal reflex arcs.
# Adult zebrafish (0.5-1.5 years) were briefly anesthetized in ice water and quickly decapitated with a sharp razor blade. Spinalized preparations were incubated in optovin (50 μM) for 1-2 min prior to testing with laser light stimuli (405 nm, 400 μW mm−2).
# T1 sequence (O75762 whole entry): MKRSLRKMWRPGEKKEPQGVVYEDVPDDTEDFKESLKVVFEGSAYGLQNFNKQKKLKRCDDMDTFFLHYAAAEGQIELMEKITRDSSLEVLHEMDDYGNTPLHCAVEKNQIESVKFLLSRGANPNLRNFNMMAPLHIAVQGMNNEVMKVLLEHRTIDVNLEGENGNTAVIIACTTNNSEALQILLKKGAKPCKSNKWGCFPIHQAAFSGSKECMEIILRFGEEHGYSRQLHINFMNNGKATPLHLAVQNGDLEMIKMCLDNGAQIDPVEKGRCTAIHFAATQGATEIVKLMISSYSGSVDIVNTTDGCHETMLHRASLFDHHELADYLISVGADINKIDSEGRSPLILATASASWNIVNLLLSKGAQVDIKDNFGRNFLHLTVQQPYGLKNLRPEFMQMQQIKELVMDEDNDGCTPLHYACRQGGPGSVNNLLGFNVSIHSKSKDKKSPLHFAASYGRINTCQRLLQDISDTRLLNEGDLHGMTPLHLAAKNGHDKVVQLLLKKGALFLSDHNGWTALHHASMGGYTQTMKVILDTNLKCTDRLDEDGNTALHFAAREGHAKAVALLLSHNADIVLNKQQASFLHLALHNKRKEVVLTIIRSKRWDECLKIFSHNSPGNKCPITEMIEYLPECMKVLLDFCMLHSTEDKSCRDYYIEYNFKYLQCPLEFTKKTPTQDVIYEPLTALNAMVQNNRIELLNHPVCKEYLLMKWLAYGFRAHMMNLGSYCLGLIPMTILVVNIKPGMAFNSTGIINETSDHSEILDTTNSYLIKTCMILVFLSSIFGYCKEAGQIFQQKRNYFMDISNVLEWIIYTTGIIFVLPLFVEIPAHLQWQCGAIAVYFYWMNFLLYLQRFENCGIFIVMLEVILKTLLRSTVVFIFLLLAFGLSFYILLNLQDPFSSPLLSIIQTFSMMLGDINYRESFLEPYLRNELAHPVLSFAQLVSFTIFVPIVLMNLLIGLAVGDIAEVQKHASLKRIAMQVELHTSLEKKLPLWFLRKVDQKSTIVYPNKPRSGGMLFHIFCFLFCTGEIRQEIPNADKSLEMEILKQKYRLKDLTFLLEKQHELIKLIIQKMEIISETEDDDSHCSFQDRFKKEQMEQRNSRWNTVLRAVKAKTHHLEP
smiles,measurement,setting,value
Cc1cc(/C=C2/SC(=S)NC2=O)c(C)n1-c1cccnc1 [optovin],change in fluorescence in response to light and optovin,hTRPA1; WT channels,strong change in fluorescence
same,effect of catalase and superoxide dismutase on optovin's effects,hTRPA1; hTRPA1 transfected HEK cells,Neither catalase nor superoxide dismutase reduce optovin's effects
same,calcium levels,"hTRPA1; optovin and light, HEK cells transfected with hTrpA1",elevated calcium levels were observed
same,light-dependent motor excitation in vivo,"zebrafish embryos; 10 μM, n=3, FIG. 4H",cause light-dependent motor excitation
same,behavioral excitation (activity of optovin analogs),"zebrafish embryos; 10 μM, n=5, FIG. 2A",active
same,response to stimulus wavelengths,"zebrafish embryos; 387, 485, 560 nm or longer","respond to 387 nm (violet) stimuli, but not to 485 nm (blue), 560 nm (green) or longer wavelengths"
same,EC50,"zebrafish embryos; Danio rerio, dose response, n=5, read-out: EC50 of light-induced motor excitation (behavioral excitation score)",2 µM
same,behavioral excitation by singlet oxygen generating photosensitizers,zebrafish embryos; FIG. 4F,only optovin causes behavioral excitation
same,response to 387 nm light stimulus,zebrafish embryos; TrpA1b homozygous mutant animals,failed to respond
same,latency of movement,zebrafish embryos; depending on developmental stage,100 to 300 ms
same,relation of stimulus and response duration,zebrafish embryos; radiation stimuli lasting between 5 and 20 seconds,stimulus and response duration are proportional
same,increase in motor activity above the control mean (Z-score),"zebrafish embryos; screen at ~10 μM, light stimulus, vs DMSO treated controls",greater than 40 standard deviations
same,light response of spinalized preparations,zebrafish embryos; trunks transected posterior to the hindbrain,respond to light
same,response to 387 nm light stimulus,"zebrafish embryos; wild-type, TrpA1a heterozygous and TrpA1a homozygous mutant animals",respond to the 387 nm light stimulus with the typical prolonged motor excitation
same,Off rate (time between end of light stimulus and return to rest),"zebrafish embryos; zebrafish, in vivo",2 s
same,On rate (latency between start of light stimulus and start of embryo movement),"zebrafish embryos; zebrafish, in vivo",-150 ms
same,lowest effective dose,"zebrafish embryos; zebrafish, in vivo",3 µM
same,radiation stimulus intensity eliciting motor behavior,"zebrafish embryos; zebrafish, in vivo",greater than 1.6 μW/mm^2
same,response to repeated light pulses,"zebrafish embryos; zebrafish, in vivo",multiple responses can be triggered with repeated light pulses
same,dorsal fin response to 405 nm laser illumination,adult zebrafish; intact adult zebrafish,rapid and reversible contraction of the fin
same,optical control of dorsal fin contraction,adult zebrafish; spinalized animals,preserved
